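48-hour exposure; five concentrations; linearly interpolated endpoints. GI50 is the concentration that inhibits growth by half.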 Activity calls are given as the source filed them. Rule as the data show it: active = GI50 up to about 1.1 µM and inactive = higher.
What was measured:
Assay in all cases: NCI anticancer screen, dose series, 48 h
CAKI-1 = test system: CAKI-1
CCRF-CEM = test system: CCRF-CEM
EKVX = test system: EKVX
HOP-62 = test system: HOP-62
KM12 = test system: KM12
NCI-H226 = test system: NCI-H226
OVCAR-3 = test system: OVCAR-3
OVCAR-5 = test system: OVCAR-5
OVCAR-8 = test system: OVCAR-8
SK-MEL-2 = test system: SK-MEL-2
SN12C = test system: SN12C
SNB-75 = test system: SNB-75
TK-10 = test system: TK-10
U-251 = test system: U-251
UO-31 = test system: UO-31

Measured: GI50

CS(=O)(=O)OCC1OC(n2ccc(NC(=O)c3ccccc3)nc2=O)CC1OS(C)(=O)=O (stereo not given)
inactive: CAKI-1 > 100 µM | CCRF-CEM > 100 µM | EKVX > 100 µM | HOP-62 > 100 µM | KM12 > 100 µM | NCI-H226 > 100 µM | OVCAR-3 > 100 µM | OVCAR-5 > 100 µM | OVCAR-8 > 100 µM | SK-MEL-2 > 100 µM | SN12C > 100 µM | SNB-75 > 100 µM | TK-10 > 100 µM | U-251 > 100 µM | UO-31 > 10 µM

CC(C)(C)[Si](C)(C)OCC1OC(n2ccc(=O)[nH]c2=O)C(O[Si](C)(C)C(C)(C)C)[C@]12O[C@@H]2CO (stereo not given in full)
inactive: CAKI-1 20.4 µM | CCRF-CEM > 10 µM | EKVX 17 µM | HOP-62 16 µM | KM12 14.8 µM | NCI-H226 13.8 µM | OVCAR-3 14.9 µM | OVCAR-5 17.5 µM | OVCAR-8 29 µM | SK-MEL-2 14.7 µM | SN12C 15.7 µM | SNB-75 18.4 µM | TK-10 14.8 µM | U-251 15.6 µM | UO-31 8.85 µM

CCOC(=O)C(NC(=O)c1cccc(Cl)c1)(Nc1ccc(S(=O)(=O)Nc2cc(C)nc(C)n2)cc1)C(F)(F)F (stereo not given)
inactive: CAKI-1 > 100 µM | CCRF-CEM > 100 µM | EKVX > 100 µM | HOP-62 > 100 µM | KM12 > 100 µM | NCI-H226 > 100 µM | OVCAR-3 > 100 µM | OVCAR-5 > 100 µM | OVCAR-8 > 100 µM | SK-MEL-2 > 100 µM | SN12C > 100 µM | SNB-75 > 100 µM | TK-10 > 100 µM | U-251 > 100 µM | UO-31 > 100 µM

O=C1c2ccccc2-c2c1c1ccccc1c(=O)n2Cc1ccco1
inactive: CAKI-1 > 100 µM | CCRF-CEM > 100 µM | EKVX > 100 µM | HOP-62 47.1 µM | KM12 > 100 µM | NCI-H226 > 100 µM | OVCAR-3 > 100 µM | OVCAR-5 > 100 µM | OVCAR-8 > 100 µM | SK-MEL-2 > 100 µM | SN12C > 100 µM | SNB-75 48.6 µM | TK-10 > 100 µM | U-251 > 100 µM | UO-31 > 100 µM

CCOP(=O)(OCC)C(C)(C)N(C)/C(F)=N/C(F)(F)F
inactive: CAKI-1 > 100 µM | CCRF-CEM > 100 µM | EKVX > 100 µM | HOP-62 > 100 µM | KM12 > 100 µM | NCI-H226 > 100 µM | OVCAR-3 > 100 µM | OVCAR-5 > 100 µM | OVCAR-8 > 100 µM | SK-MEL-2 > 100 µM | SN12C > 100 µM | SNB-75 > 100 µM | TK-10 > 100 µM | U-251 > 100 µM | UO-31 > 100 µM
